“And” between values parts separate entries of the source, which are not always exact repeats. Equal entries are not always repeated. Inconclusive results and toxic doses are left out.
System: BDF1 mice, P388 leukemia ip, median survival T/C
Assay: NCI In Vivo Anticancer Drug Screen. Data for tumor model P388 Leukemia (intraperitoneal) in B6D2F1 (BDF1) mice
Conditions: endpoint: median survival time, higher = longer survival
Procedure, shortened: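 Vehicle-dosed animals serve as the reference; survival of compound-dosed, tumour-implanted mice is divided by it.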

[1] = dose: 100.0 mg/kg/injection, schedule: Q04DX003 (ip), vehicle: saline
[2] = dose: 200.0 mg/kg/injection, schedule: Q04DX003 (ip), vehicle: saline
[3] = dose: 400.0 mg/kg/injection, schedule: Q04DX003 (ip), vehicle: saline
[4] = dose: 50.0 mg/kg/injection, schedule: Q01DX009 (ip), vehicle: saline with Tween-80
[5] = dose: 100.0 mg/kg/injection, schedule: Q01DX009 (ip), vehicle: saline with Tween-80
[6] = dose: 100.0 mg/kg/injection, schedule: Q04DX003 (ip), vehicle: saline with Tween-80
[7] = dose: 200.0 mg/kg/injection, schedule: Q01DX009 (ip), vehicle: saline with Tween-80
[8] = dose: 100.0 mg/kg/injection, schedule: Q04DX003 (ip), vehicle: Klucel (hydroxypropylcellulose) (HPC)
[9] = dose: 200.0 mg/kg/injection, schedule: Q04DX003 (ip), vehicle: Klucel (hydroxypropylcellulose) (HPC)
[10] = dose: 400.0 mg/kg/injection, schedule: Q04DX003 (ip), vehicle: Klucel (hydroxypropylcellulose) (HPC)

## CC(=O)NC(=O)NC(C)=O
dose: 100.0 mg/kg/injection, schedule: Q01DX001 (ip), vehicle: saline
  T/C: 91 % of control
dose: 200.0 mg/kg/injection, schedule: Q01DX001 (ip), vehicle: saline
  T/C: 91 % of control
dose: 400.0 mg/kg/injection, schedule: Q01DX001 (ip), vehicle: saline
  T/C: 91 % of control

## Cc1ccc(NCc2cccc3ccccc23)c(C)c1
[1]
  T/C: 91 % of control
[2]
  T/C: 100 % of control
[3]
  T/C: 95 % of control

## Cc1ccc(C(=O)O)cc1S(=O)(=O)Cl
dose: 4.0 mg/kg/injection, schedule: Q01DX009 (ip), vehicle: saline with Tween-80
  T/C: 117 % of control
dose: 8.0 mg/kg/injection, schedule: Q01DX009 (ip), vehicle: saline with Tween-80
  T/C: 110 % of control
dose: 16.0 mg/kg/injection, schedule: Q01DX009 (ip), vehicle: saline with Tween-80
  T/C: 90 % of control
dose: 25.0 mg/kg/injection, schedule: Q01DX009 (ip), vehicle: saline with Tween-80
  T/C: 104 % of control
dose: 32.0 mg/kg/injection, schedule: Q01DX009 (ip), vehicle: saline with Tween-80
  T/C: 117 % of control
[4]
  T/C: 95 % of control
dose: 50.0 mg/kg/injection, schedule: Q04DX003 (ip), vehicle: saline with Tween-80
  T/C: 106 % of control
[5]
  T/C: 98 % of control
[6]
  T/C: 100 % of control
[7]
  T/C: 95 % of control

## Cc1[nH]c(N)nc(=S)c1CCC(=O)O
[8]
  T/C: 100 % of control
[9]
  T/C: 104 % of control
[10]
  T/C: 95 % of control

## Cc1cccc(NS(=O)(=O)c2ccc(Cl)cc2)c1C
[1]
  T/C: 100 % of control
[2]
  T/C: 95 % of control
[3]
  T/C: 108 % of control

## CC1(C)c2c3ccccc3cc3cccc(c23)[S+]1c1ccccc1 (centres undefined)
dose: 10.0 mg/kg/injection, schedule: Q01DX009 (ip), vehicle: saline with Tween-80
  T/C: 120 % of control

## Cn1c(=O)[nH]c(=O)c2nc(-c3cccnc3)c(-c3ccncc3)nc21
dose: 100.0 mg/kg/injection, schedule: Q04DX002 (ip), vehicle: saline with Tween-80
  T/C: 101 % of control
dose: 200.0 mg/kg/injection, schedule: Q04DX002 (ip), vehicle: saline with Tween-80
  T/C: 99 % of control
dose: 400.0 mg/kg/injection, schedule: Q04DX002 (ip), vehicle: saline with Tween-80
  T/C: 110 % of control

## COc1ccc(COC(=O)NC(CCS(C)=O)C(=O)O)cc1 (centres undefined)
[4]
  T/C: 91 % of control
[5]
  T/C: 99 % of control
[7]
  T/C: 99 % of control

## CCOC(=O)C(C#N)C1CCCCC1 (centres undefined)
dose: 100.0 mg/kg/injection, schedule: Q01DX009 (ip), vehicle: Klucel (hydroxypropylcellulose) (HPC)
  T/C: 100 % of control
[8]
  T/C: 104 % of control
dose: 200.0 mg/kg/injection, schedule: Q01DX009 (ip), vehicle: Klucel (hydroxypropylcellulose) (HPC)
  T/C: 104 % of control
[9]
  T/C: 104 % of control
dose: 400.0 mg/kg/injection, schedule: Q01DX009 (ip), vehicle: Klucel (hydroxypropylcellulose) (HPC)
  T/C: 109 % of control
[10]
  T/C: 90 % of control

## CCCOP(=O)(OCCC)C(OC(=O)C(C)C)=C(C)C
[6]
  T/C: 120 % of control
dose: 200.0 mg/kg/injection, schedule: Q04DX003 (ip), vehicle: saline with Tween-80
  T/C: 105 % of control

## CC(=O)OCC1OC(n2ccc(N)nc2=O)C(OC(C)=O)C1OC(C)=O (centres undefined)
[4]
  T/C: 170 % of control
[5]
  T/C: 188 % of control
dose: 177.0 mg/kg/injection, schedule: Q04DX003 (ip), vehicle: saline
  T/C: 177 % of control
[7]
  T/C: 106 % of control
dose: 266.0 mg/kg/injection, schedule: Q04DX003 (ip), vehicle: saline
  T/C: 181 % of control and 195 % of control
[3]
  T/C: 187 % of control and 204 % of control
dose: 600.0 mg/kg/injection, schedule: Q04DX003 (ip), vehicle: saline
  T/C: 263 % of control and 200 % of control

## CCCCCCCCCCCCCCCCCCCC
dose: 6.25 mg/kg/injection, schedule: Q04DX003 (ip), vehicle: other
  T/C: 100 % of control
dose: 12.5 mg/kg/injection, schedule: Q04DX003 (ip), vehicle: other
  T/C: 100 % of control
dose: 25.0 mg/kg/injection, schedule: Q04DX003 (ip), vehicle: other
  T/C: 100 % of control
dose: 50.0 mg/kg/injection, schedule: Q01DX009 (ip), vehicle: other
  T/C: 100 % of control
dose: 100.0 mg/kg/injection, schedule: Q01DX009 (ip), vehicle: other
  T/C: 100 % of control

## C(/C=C/C=C/Nc1ccc(N=Nc2ccccc2)cc1)=Nc1ccc(N=Nc2ccccc2)cc1
[1]
  T/C: 90 % of control
[2]
  T/C: 104 % of control
[3]
  T/C: 95 % of control

## Cc1ccc(C(O)(CS(C)=O)c2ccco2)cc1 (centres undefined)
dose: 50.0 mg/kg/injection, schedule: Q01DX009 (ip), vehicle: saline + alcohol
  T/C: 98 % of control
dose: 100.0 mg/kg/injection, schedule: Q01DX009 (ip), vehicle: saline + alcohol
  T/C: 90 % of control

Source: PubChem BioAssay AID328 (DTP/NCI, 2004)
